# Test results taken from patent US9981909B2 (Janssen Pharmaceutica NV, priority 2008, dated 2018).
# Like-named read-outs stand apart in the source and are kept apart here.
# Legend:
# [1] = target: T1, h5HT2C (Homo sapiens (Human), UniProt P28335); test: h5HT2C binding
# [2] = target: rat 5-HT7 receptor (Rattus norvegicus (Rat), UniProt P32305); test: r5-HT7 binding assay, competitive radioligand binding with [3H]5-CT
# Outline: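 Whole r5-HT7-transfected HEK-293 cells first received test compound for 10 min. They were then exposed to 100 nM 5-CT for 20 min before lysis and competitive immunoassay of cAMP. Affinity came from displacement of [3H]5-CT on membranes of the same recombinant line, expressed as Ki.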
# [3] = target: human SERT (Homo sapiens (Human), UniProt P31645); test: human SERT binding assay with [3H]-citalopram on HEK-293 membranes; conditions: read-out: hSERT binding Ki
# [4] = target: T2, h5HT2A (Homo sapiens (Human), UniProt P28223); test: h5HT2A binding
# [5] = target: h5-HT6 (Homo sapiens (Human), UniProt P50406); test: h5-HT6 binding assay with [3H]LSD on HEK-293 membranes; conditions: h5-HT6, [3H]LSD, HEK-293 membranes; read-out: h5HT6 binding Ki
# Description: Receptor binding was performed using membrane fractions prepared from the HEK-293 cell line recombinantly expressing rat 5-HT7 receptors (NCBI accession NM_022938). Compound affinity for the rat 5-HT7 receptor subtype was evaluated by competitive radioligand binding assays using 5-carboxamido[^3H]tryptamine ([^3H]5-CT) (Amersham Biosciences, cat. 90000403) detection. HitHunter™ cAMP assays are in-vitro based competitive immunoassays. The assay was performed on the HEK-293 cell line stably transfected with r5-HT7 receptor. Cells were pre-incubated with test compounds for 10 minutes. For antagonist testing, the cells were then challenged with 100 nM 5-CT for 20 minutes. Cells were then lysed and cAMP measured according to manufacturers protocol (Amersham, cat. NET791250UC) or [^3H]mesulergine (Amersham, cat. TRK1041). The assay was performed on membranes prepared from HEK-293 cells stably transfected with h5-HT6. Following centrifugation, membranes were resuspended and incubated for 60 min at room temperature with 1.7 nM [^3H]LSD in the presence of increasing concentration of test compounds. Nonspecific binding was defined in the presence of 10 μM clozapine (Tocris, cat. TRK1068). Homogenized HEK-293 membranes expressing the human SERT were incubated in 50 mM Tris-HCl (pH 7.5), 120 mM NaCl, 5 mM KCl with [^3H]-citalopram (3 nM) with or without test compounds. Nonspecific binding was determined in the presence of 10 μM fluoxetine. Radioactivity readouts and Ki values were performed as previously described for r5-HT7. […] Compounds were assayed in their free form or as salts, as indicated in the Examples section above.
# [6] = target: T1, h5HT2C; test: h5HT2C binding; remark: listed apart in the source
# [7] = target: T3, h5HT2B (Homo sapiens (Human), UniProt P41595); test: h5HT2B binding
# [8] = target: r5-HT7 receptor (Rattus norvegicus (Rat), UniProt P32305); test: HitHunter cAMP assay, antagonist testing against 100 nM 5-CT; format: cell-based; conditions: antagonist testing, 100 nM 5-CT challenge, HEK-293 r5-HT7; read-out: R5HT7 cAMP pKb (converted)
# Outline: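 Competition against [3H]5-CT on rat 5-HT7 HEK-293 membranes; Ki from radioactivity. Functional: 10 min compound, 100 nM 5-CT for 20 min, cAMP immunoassay after lysis.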
# [9] = target: T2, h5HT2A; test: h5HT2A binding; remark: listed apart in the source
# [10] = target: T3, h5HT2B; test: h5HT2B binding; remark: listed apart in the source
# [11] = rat 5-HT7 receptor, HEK-293 membranes
# T1 sequence (P28335 33-458): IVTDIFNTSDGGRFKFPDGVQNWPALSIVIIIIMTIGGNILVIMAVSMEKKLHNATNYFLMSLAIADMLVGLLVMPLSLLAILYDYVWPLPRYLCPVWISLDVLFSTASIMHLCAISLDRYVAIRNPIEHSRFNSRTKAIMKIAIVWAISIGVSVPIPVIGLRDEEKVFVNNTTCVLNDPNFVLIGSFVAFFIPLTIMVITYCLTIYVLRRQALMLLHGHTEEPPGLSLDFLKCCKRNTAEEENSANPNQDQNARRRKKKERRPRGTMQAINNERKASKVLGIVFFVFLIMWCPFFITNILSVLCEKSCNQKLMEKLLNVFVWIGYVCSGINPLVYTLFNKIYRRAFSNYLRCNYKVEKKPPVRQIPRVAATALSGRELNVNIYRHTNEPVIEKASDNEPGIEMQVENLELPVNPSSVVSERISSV
# T2 sequence (P28223 whole entry): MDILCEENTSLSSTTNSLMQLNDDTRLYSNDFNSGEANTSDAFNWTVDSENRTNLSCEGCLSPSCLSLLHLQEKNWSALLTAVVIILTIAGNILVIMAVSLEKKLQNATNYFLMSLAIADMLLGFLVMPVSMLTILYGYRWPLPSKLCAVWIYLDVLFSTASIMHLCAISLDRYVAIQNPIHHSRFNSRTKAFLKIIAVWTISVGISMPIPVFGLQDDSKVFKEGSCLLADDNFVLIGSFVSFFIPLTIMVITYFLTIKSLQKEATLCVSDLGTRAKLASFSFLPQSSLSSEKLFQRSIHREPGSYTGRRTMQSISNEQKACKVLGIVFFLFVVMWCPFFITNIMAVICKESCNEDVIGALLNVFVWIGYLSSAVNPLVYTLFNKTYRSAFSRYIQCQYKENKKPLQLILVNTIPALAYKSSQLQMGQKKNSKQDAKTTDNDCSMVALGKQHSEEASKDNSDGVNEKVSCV
# Chain of h5-HT6 (P50406 whole entry): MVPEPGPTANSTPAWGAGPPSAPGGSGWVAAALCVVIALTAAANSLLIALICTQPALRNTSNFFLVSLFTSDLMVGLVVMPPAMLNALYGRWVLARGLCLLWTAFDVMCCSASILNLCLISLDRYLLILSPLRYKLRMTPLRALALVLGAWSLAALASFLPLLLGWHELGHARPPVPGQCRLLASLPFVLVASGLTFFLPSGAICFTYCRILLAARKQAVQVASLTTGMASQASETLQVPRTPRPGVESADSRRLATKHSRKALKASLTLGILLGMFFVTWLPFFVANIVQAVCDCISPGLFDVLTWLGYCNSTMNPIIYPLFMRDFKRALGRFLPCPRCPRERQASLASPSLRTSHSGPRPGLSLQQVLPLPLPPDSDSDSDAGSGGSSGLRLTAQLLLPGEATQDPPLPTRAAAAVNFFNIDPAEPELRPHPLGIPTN
# T3 sequence (P41595 whole entry): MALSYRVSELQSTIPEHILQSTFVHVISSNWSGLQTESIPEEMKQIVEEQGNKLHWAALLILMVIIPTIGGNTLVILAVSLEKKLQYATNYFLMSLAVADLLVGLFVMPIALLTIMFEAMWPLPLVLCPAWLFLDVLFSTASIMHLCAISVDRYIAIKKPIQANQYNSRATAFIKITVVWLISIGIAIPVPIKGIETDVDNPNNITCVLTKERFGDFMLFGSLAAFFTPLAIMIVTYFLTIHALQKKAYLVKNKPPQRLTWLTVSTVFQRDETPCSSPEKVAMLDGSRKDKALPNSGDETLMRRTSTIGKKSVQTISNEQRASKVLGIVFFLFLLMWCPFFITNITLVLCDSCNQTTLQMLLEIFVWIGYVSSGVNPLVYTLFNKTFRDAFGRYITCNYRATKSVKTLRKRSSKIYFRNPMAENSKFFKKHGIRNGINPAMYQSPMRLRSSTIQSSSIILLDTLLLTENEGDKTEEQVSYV
# Chain of human SERT (P31645 whole entry): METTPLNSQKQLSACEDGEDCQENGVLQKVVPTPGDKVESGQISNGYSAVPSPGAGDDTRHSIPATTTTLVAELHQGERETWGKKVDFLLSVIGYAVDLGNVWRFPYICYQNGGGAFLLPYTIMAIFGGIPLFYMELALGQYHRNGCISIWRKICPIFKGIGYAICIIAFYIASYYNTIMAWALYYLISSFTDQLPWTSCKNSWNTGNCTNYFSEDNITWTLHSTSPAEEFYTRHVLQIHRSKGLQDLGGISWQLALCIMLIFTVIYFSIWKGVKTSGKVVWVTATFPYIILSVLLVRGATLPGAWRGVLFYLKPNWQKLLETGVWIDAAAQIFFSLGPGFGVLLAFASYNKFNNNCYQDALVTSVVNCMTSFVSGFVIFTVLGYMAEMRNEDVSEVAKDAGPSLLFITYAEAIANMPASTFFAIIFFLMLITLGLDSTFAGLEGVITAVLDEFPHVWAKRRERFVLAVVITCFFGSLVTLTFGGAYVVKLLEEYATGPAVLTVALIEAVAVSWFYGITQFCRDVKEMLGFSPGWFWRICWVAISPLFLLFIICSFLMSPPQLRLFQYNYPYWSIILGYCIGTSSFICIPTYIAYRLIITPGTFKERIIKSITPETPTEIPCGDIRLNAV
# Chain of rat 5-HT7 receptor (P32305 1-435): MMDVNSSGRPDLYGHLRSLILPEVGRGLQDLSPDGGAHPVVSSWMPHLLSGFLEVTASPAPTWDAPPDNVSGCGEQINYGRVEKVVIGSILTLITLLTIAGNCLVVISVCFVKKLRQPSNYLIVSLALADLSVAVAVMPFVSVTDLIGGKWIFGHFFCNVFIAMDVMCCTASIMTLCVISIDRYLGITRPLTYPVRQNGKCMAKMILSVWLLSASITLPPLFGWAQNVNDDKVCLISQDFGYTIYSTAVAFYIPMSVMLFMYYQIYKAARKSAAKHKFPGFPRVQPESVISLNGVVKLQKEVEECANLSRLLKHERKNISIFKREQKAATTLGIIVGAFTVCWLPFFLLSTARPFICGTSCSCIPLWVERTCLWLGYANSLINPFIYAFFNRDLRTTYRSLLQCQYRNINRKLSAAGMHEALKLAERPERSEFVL
# Chain of r5-HT7 receptor (P32305 1-435): as above
SMILES,Ki [1],"Ki ([2]; rat 5-HT7, HEK-293 membranes)",Ki [3],Ki [4],Ki [5],Ki [6],"Ki [2, 11]",Ki [7],Ki [9],Ki [10],Kb [8]
"C[C@@H]1NC[C@H]1Oc1cc(Br)ccc1OCc1cccc(F)c1 (racemic) [Example 219, (±)-trans-3-[5-Bromo-2-(3-fluoro-benzyloxy)-phenoxy]-2-methyl-azetidine]",31 nM,9 nM,68 nM,,,,,,,,
"CC(Oc1ccc(Cl)cc1OC1CNC1)c1cccc(C(F)(F)F)c1 (stereo in doubt) [Example 101, (S)-3-[5-Chloro-2-[1-(3-trifluoromethyl-phenyl)-ethoxy]-phenoxy]-azetidine]",,,152 nM,317 nM,746 nM,933 nM,5 nM,203 nM,,,
"Clc1cccc(COc2ccc(Br)cc2OC2CNC2)c1 [Example 2, 3-[5-Bromo-2-(3-chloro-benzyloxy)-phenoxy]-azetidine]",,,1 nM,42 nM,47 nM,760 nM,12 nM,74 nM,,,31.6 nM
"C[C@@H](Oc1ccc(Cl)cc1OC1CCNCC1)c1cccc(C(F)(F)F)c1 [Example 135, (R)-4-[5-Chloro-2-[1-(3-trifluoromethyl-phenyl)-ethoxy]-phenoxy]-piperidine]",,,96 nM,140 nM,1280 nM,755 nM,15 nM,27 nM,,,
"COc1ccc2c(c1)CC(Oc1ccc(Cl)cc1OC1CNC1)C2 (stereo not shown) [Example 177, 3-[5-Chloro-2-(5-methoxy-indan-2-yloxy)-phenoxy]-azetidine]",,,262 nM,35 nM,123 nM,140 nM,12 nM,56 nM,,,
"Clc1cccc(CCOc2ccc(Cl)cc2OC2CNC2)c1 [Example 185, 3-[5-Chloro-2-[2-(3-chloro-phenyl)-ethoxy]-phenoxy]-azetidine]",,,29 nM,8 nM,177 nM,91 nM,6 nM,7 nM,,,
Clc1ccc(OCCc2ccccc2)c(OC2CNC2)c1 [Example 186],,,53 nM,14 nM,33 nM,79 nM,5 nM,8 nM,,,
"Brc1ccc(OCCc2ccccc2)c(OC2CNC2)c1 [Example 195, 3-(5-Bromo-2-phenethyloxy-phenoxy)-azetidine]",,,60 nM,10 nM,27 nM,42 nM,2 nM,4 nM,,,
"CC1(Oc2cc(Br)ccc2OCCc2ccccc2)CNC1 [Example 215, 3-(5-Bromo-2-phenethyloxy-phenoxy)-3-methyl-azetidine]",26 nM,11 nM,44 nM,,,,,,6 nM,17 nM,
"Clc1ccc(OC2CN(c3ccccc3)C2)c(OC2CNC2)c1 [Example 222, 3-[5-Chloro-2-(1-phenyl-azetidin-3-ol)-phenoxy]-azetidine]",1010 nM,18 nM,2110 nM,,,,,,,,

# Now from value to compound, other results behind:
Ki [1],"Ki ([2]; rat 5-HT7, HEK-293 membranes)",Ki [3],Ki [4],Ki [5],Ki [6],"Ki [2, 11]",Ki [7],Ki [9],Ki [10],SMILES,Kb [8]
230 nM,> 10000 nM,,,,,,,150 nM,130 nM,"Cc1ccc(Oc2cc(Cl)ccc2O[C@H]2CCNC2)cc1 [Example 266, (S)-3-(4-Chloro-2-p-tolyloxy-phenoxy)-pyrrolidine]",
210 nM,2300 nM,,,,,,,120 nM,65 nM,"Cc1ccc(Oc2cc(Cl)ccc2O[C@@H]2CCNC2)cc1 [Example 267, (R)-3-(4-Chloro-2-p-tolyloxy-phenoxy)-pyrrolidine]",
380 nM,820 nM,,,,,,,150 nM,130 nM,"Cc1ccc(Oc2cc(Cl)ccc2O[C@@H]2CCN(C)C2)cc1 [Example 268, (R)-3-(4-Chloro-2-p-tolyloxy-phenoxy)-1-methyl-pyrrolidine]",
400 nM,> 10000 nM,,,,,,,190 nM,500 nM,"Fc1ccc(Oc2cc(Cl)ccc2O[C@H]2CCNC2)cc1 [Example 269, (S)-3-[4-Chloro-2-(4-fluoro-phenoxy)-phenoxy]-pyrrolidine]",
240 nM,1000 nM,,,,,,,120 nM,75 nM,"Fc1ccc(Oc2cc(Cl)ccc2O[C@@H]2CCNC2)cc1 [Example 270, (R)-3-[4-Chloro-2-(4-fluoro-phenoxy)-phenoxy]-pyrrolidine]",
350 nM,660 nM,,,,,,,78 nM,98 nM,"CN1CC[C@@H](Oc2ccc(Cl)cc2Oc2ccc(F)cc2)C1 [Example 271, (R)-3-[4-Chloro-2-(4-fluoro-phenoxy)-phenoxy]-1-methyl-pyrrolidine]",
330 nM,> 10000 nM,,,,,,,220 nM,310 nM,"Cc1ccccc1Oc1cc(Cl)ccc1O[C@H]1CCNC1 [Example 272, (S)-3-(4-Chloro-2-o-tolyloxy-phenoxy)-pyrrolidine]",
150 nM,> 5000 nM,,,,,,,82 nM,160 nM,"Cc1cccc(Oc2cc(Cl)ccc2O[C@H]2CCNC2)c1 [Example 273, (S)-3-(4-Chloro-2-m-tolyloxy-phenoxy)-pyrrolidine]",
230 nM,8600 nM,,,,,,,100 nM,170 nM,"Cc1cc(Oc2cc(Cl)ccc2O[C@H]2CCNC2)ccc1F [Example 274, (S)-3-[4-Chloro-2-(4-fluoro-3-methyl-phenoxy)-phenoxy]-pyrrolidine]",
220 nM,> 10000 nM,,,,,,,530 nM,910 nM,"Clc1ccc(Oc2cc(Cl)ccc2O[C@H]2CCNC2)cc1 [Example 275, (S)-3-[4-Chloro-2-(4-chloro-phenoxy)-phenoxy]-pyrrolidine]",
120 nM,> 10000 nM,,,,,,,84 nM,190 nM,"Clc1cccc(Oc2cc(Cl)ccc2O[C@H]2CCNC2)c1 [Example 276, (S)-3-[4-Chloro-2-(3-chloro-phenoxy)-phenoxy]-pyrrolidine]",
120 nM,5500 nM,,,,,,,410 nM,270 nM,"Clc1ccc(O[C@H]2CCNC2)c(Oc2ccc(Br)cc2)c1 [Example 277, (S)-3-[2-(4-Bromo-phenoxy)-4-chloro-phenoxy]-pyrrolidine]",
330 nM,> 10000 nM,,,,,,,1400 nM,1300 nM,"CC(C)c1ccc(Oc2cc(Cl)ccc2O[C@H]2CCNC2)cc1 [Example 278, (S)-3-[4-Chloro-2-(4-isopropyl-phenoxy)-phenoxy]-pyrrolidine]",
